Results published in patent US11285135B2 (AMGEN INC., priority 2016, dated 2022).
pIC50: −log10 of the molar value. Where two headings read alike, the source gives them in different places.

Legend:
[1] = target: GDP-bound protein (aa 1-169), containing both G12C and C118A amino acid substitutions (Homo sapiens, UniProt P01116, C118A/G12C); assay: Coupled Nucleotide Exchange Assay (SOS-mediated nucleotide exchange, AlphaScreen); type: biochemical; conditions: 2 hours compound pre-incubation
Description: Coupled Nucleotide Exchange Assay: Purified GDP-bound […] protein (aa 1-169), containing both G12C and C118A amino acid substitutions and an N-terminal His-tag, was pre-incubated with a compound dose-response titration for 2 hours in assay buffer (25 mM HEPES pH 7.4, 10 mM MgCl2, and 0.01% Triton X-100). Following compound pre-incubation, purified SOS protein (aa 564-1049) and GTP (Roche 10106399001) were added to the assay wells and incubated for an additional hour. […] The assay plates were then read on a PerkinElmer EnVision Multilabel Reader, using AlphaScreen® technology, and data were analyzed using a 4-parameter logistic model to calculate IC50 values.

[2] = tested on: Phosphorylation of ERK½ in MIA PaCa-2 cells; assay: Phospho-ERK½ MSD Assay in MIA PaCa-2 cells; type: cell-based; conditions: 4 hours compound treatment, 10 ng/mL EGF for 10 min, read-out: p-ERK IC50 (MIA PaCa-2)
Description: (§1) Phospho-ERK½ MSD Assay: MIA PaCa-2 (ATCC® CRL-1420™) and A549 (ATCC® CCL-185™) cells were cultured in RPMI 1640 Medium (ThermoFisher Scientific 11875093) containing 10% fetal bovine serum (ThermoFisher Scientific 16000044) and 1× penicillin-streptomycin-glutamine (ThermoFisher Scientific 10378016). Sixteen hours prior to compound treatment, MIA PaCa-2 or A549 cells were seeded in 96-well cell culture plates at a density of 25,000 cells/well and incubated at 37° C., 5% CO2. A compound dose-response titration was diluted in growth media, added to appropriate wells of a cell culture plate, and then incubated at 37° C., 5% CO2 for 4 hours. Following compound treatment, cells were stimulated with 10 ng/mL EGF (Roche 11376454001) for 10 min, washed with ice-cold Dulbecco's phosphate-buffered saline, no Ca^2+ or Mg^2+ (ThermoFisher Scientific 14190144), and then lysed in RIPA buffer (50 mM Tris-HCl pH 7.5, 1% Igepal, 0.5% sodium deoxycholate, 150 mM NaCl, and 0.5% sodium dodecyl sulfate) containing protease inhibitors (Roche 4693132001) and phosphatase inhibitors (Roche 4906837001). Cell lysates were stored frozen at −80° C. overnight. Phosphorylation of ERK½ in compound-treated lysates was assayed using Phospho-ERK½ Whole Cell Lysate kits (Meso Scale Discovery K151DWD) according to the manufacturer's protocol. Assay plates were read on a Meso Scale Discovery Sector Imager 6000, and data were analyzed using a 4-parameter logistic model to calculate IC50 values.

[3] = tested on: Phosphorylation of ERK½ in A549 cells; assay: Phospho-ERK½ MSD Assay in A549 cells; type: cell-based; conditions: 4 hours compound treatment, 10 ng/mL EGF for 10 min, read-out: p-ERK IC50 (A549)
Description: as §1

[4] = Homo sapiens, MIA PaCa-2, MIA PaCa-2 cells

GDP-bound protein (aa 1-169), containing both G12C and C118A amino acid substitutions, sequence (P01116 1-169 isoform P01116-2 G12C/C118A): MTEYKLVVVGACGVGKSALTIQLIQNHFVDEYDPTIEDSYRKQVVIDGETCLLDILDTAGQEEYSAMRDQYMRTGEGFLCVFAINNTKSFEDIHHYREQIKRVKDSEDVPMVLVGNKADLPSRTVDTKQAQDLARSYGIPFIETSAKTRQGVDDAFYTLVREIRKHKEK

Coupled exchange IC50 [1] [µM]	pIC50 [2, 4]	pIC50 ([3]; Homo sapiens, A549, A549 cells)	pIC50 ([2]; MIA PaCa-2 cells)	pIC50 ([3]; A549 cells, listed as 8-6-7)	pIC50 ([3]; A549 cells)	SMILES
1.02	5.59	4.31				CN(C)C/C=C/C(=O)N1CCN(c2snc3c(F)c(-c4cc(O)cc5ccccc45)c(Cl)cc23)CC1 [Example 17-2, (2E)-1-(4-(5-chloro-7-fluoro-6-(3-hydroxy-1-naphthalenyl)-2,1-benzothiazol-3-yl)-1-piperazinyl)-4-(dimethylamino)-2-buten-1-one]
0.185			6.89	< 4.00		C=CC(=O)N1CCN(c2nc(=O)n(-c3ccccc3C(C)C)c3nc(-c4c(O)cccc4F)c(Cl)cc23)[C@@H](C)C1 (single isomer, unassigned) [Example 8-6-2]
0.516	4.83	< 4.00				C=CC(=O)N1CCN(c2nnc(-c3ccccc3Cl)c3cc(-c4c(O)cccc4F)c(Cl)cc23)CC1 [Example 10-11, 1-(4-(7-chloro-4-(2-chlorophenyl)-6-(2-fluoro-6-hydroxyphenyl)-1-phthalazinyl)-1-piperazinyl)-2-propen-1-one]
0.297		< 4.00	5.88			C=CC(=O)N1CCN(c2snc3c(F)c(-c4cc(O)cc5ccccc45)c(Cl)cc23)[C@@H](C)C1 [Example 1-19, 1-((3S)-4-(5-chloro-7-fluoro-6-(3-hydroxy-1-naphthalenyl)-2,1-benzothiazol-3-yl)-3-methyl-1-piperazinyl)-2-propen-1-one]
0.147	6.87	4.18				C=CC(=O)N1CCN(c2nc(=O)n(-c3ccncc3C3CC3)c3cc(-c4c(C)ccc5[nH]ncc45)c(Cl)cc23)[C@@H](C)C1 [Example 9-9, 6-chloro-1-(3-cyclopropyl-4-pyridinyl)-7-(5-methyl-1H-indazol-4-yl)-4-((2S)-2-methyl-4-(2-propenoyl)-1-piperazinyl)-2(1H)-quinazolinone]
0.139	6.09	< 4.00				C=CC(=O)N1CC(N(C)c2snc3c(F)c(-c4cc(O)cc5ccccc45)c(Cl)cc23)C1 [Example 5-9, 1-(3-((5-Chloro-7-fluoro-6-(3-hydroxynaphthalen-1-yl)benzo[c]isothiazol-3-yl)(methyl)amino)azetidin-1-yl)prop-2-en-1-one]
0.151			7.80		4.66	C=CC(=O)N1CCN(c2nc(=O)n(-c3ccccc3C(C)C)c3cc(-c4c(C)ccc5[nH]ncc45)c(Cl)cc23)CC1 (single isomer, unassigned) [Example 11-1-2, 6-chloro-7-(5-methyl-1H-indazol-4-yl)-1-(2-(2-propanyl)phenyl)-4-(4-(2-propenoyl)-1-piperazinyl)-2(1H)-quinazolinone]
0.883	5.23	< 4.00				C=CC(=O)N1CC[C@H]2[C@@H]1CN2c1snc2c(F)c(-c3cc(O)cc4ccccc34)c(Cl)cc12 [Example 5-6, 1-((1S,5S)-6-(5-chloro-7-fluoro-6-(3-hydroxy-1-naphthalenyl)-2,1-benzothiazol-3-yl)-2,6-diazabicyclo[3.2.0]heptan-2-yl)-2-propen-1-one]
1.07	5.15	< 4.00				C=CC(=O)N1CCN(c2snc3c(F)c(-c4cc(O)ccc4C)c(Cl)cc23)CC1 [Example 3-8, 1-(4-(5-chloro-7-fluoro-6-(5-hydroxy-2-methylphenyl)-2,1-benzothiazol-3-yl)-1-piperazinyl)-2-propen-1-one]
0.306	7.11	4.89				C=CC(=O)N1CCN(c2nc(=O)n(-c3ccccc3C(C)C)c3cc(-c4cc(O)cc5ccccc45)c(Cl)cc23)CC1 [Example 9-13, 6-chloro-7-(3-hydroxy-1-naphthalenyl)-1-(2-(2-propanyl)phenyl)-4-(4-(2-propenoyl)-1-piperazinyl)-2(1H)-quinazolinone]
2.60	< 4.00	< 4.00				C=CC(=O)N1CCN(c2snc3c(F)c(-c4cc(O)c(F)cc4Cl)c(Cl)cc23)CC1 [Example 3-18, 1-(4-(5-chloro-6-(2-chloro-4-fluoro-5-hydroxyphenyl)-7-fluoro-2,1-benzothiazol-3-yl)-1-piperazinyl)-2-propen-1-one]
1.25	5.89	5.43				C=CC(=O)N1CCN(c2snc3nc(-c4c(C)ccc5[nH]ncc45)c(Cl)cc23)C(C)C1 (single isomer, unassigned) [Example 2-6-2, 1-((3R)-4-(5-chloro-6-(5-methyl-1H-indazol-4-yl)[1,2]thiazolo[3,4-b]pyridin-3-yl)-3-methyl-1-piperazinyl)-2-propen-1-one or 1-((3S)-4-(5-chloro-6-(5-methyl-1H-indazol-4-yl)[1,2]thiazolo[3,4-b]pyridin-3-yl)-3-methyl-1-piperazinyl)-2-propen-1-one]
0.251	6.10	< 4.00				C=CC(=O)N1CCN(c2snc3c(F)c(-c4nc(N)cc5ccccc45)c(Cl)cc23)CC1 [Example 25, 1-(4-(6-(3-Amino-1-isoquinolinyl)-5-chloro-7-fluoro-2,1-benzothiazol-3-yl)-1-piperazinyl)-2-propen-1-one]
0.302			5.63		< 4.00	C=CC(=O)N1CCN(c2snc3c(F)c(-c4cc(O)cc5ccccc45)c(Cl)cc23)CC1 (single isomer, unassigned) [Example 3-1-2, 1-(4-(5-chloro-7-fluoro-6-(3-hydroxy-1-naphthalenyl)-2,1-benzothiazol-3-yl)-1-piperazinyl)-2-propen-1-one]
1.33	5.41	< 4.00				C=CC(=O)N1CCN(c2nc(=O)n(-c3cccc(C#N)c3)c3cc(-c4c(O)cccc4F)c(Cl)cc23)CC1 [Example 9-5, 3-(6-chloro-7-(2-fluoro-6-hydroxyphenyl)-2-oxo-4-(4-(2-propenoyl)-1-piperazinyl)-1(2H)-quinazolinyl)benzonitrile]
1.32	5.89	< 4.00				C=CC(=O)N1CCN(c2nc(=O)n(-c3c(CC)cccc3CC)c3nc(-n4nnc5ccccc54)c(Cl)cc23)[C@@H](C)C1 [Example 9-12, 7-(1H-benzotriazol-1-yl)-6-chloro-1-(2,6-diethylphenyl)-4-((2S)-2-methyl-4-(2-propenoyl)-1-piperazinyl)pyrido[2,3-d]pyrimidin-2(1H)-one]
1.68	4.47	< 4.00				C=CC(=O)N1CCN(c2nnc(-c3cccc4[nH]ccc34)c3cc(-c4c(O)cccc4F)c(Cl)cc23)CC1 [Example 10-9, 1-(4-(7-chloro-6-(2-fluoro-6-hydroxyphenyl)-4-(1H-indol-4-yl)-1-phthalazinyl)-1-piperazinyl)-2-propen-1-one]
0.695	5.09	< 4.00				C=CC(=O)N1CCN(c2snc3c(F)c(-c4cc(O)cc5ccccc45)c(Cl)cc23)C(CCO)C1 (stereo in doubt) [Example 1-11, 1-((3S)-4-(5-chloro-7-fluoro-6-(3-hydroxy-1-naphthalenyl)-2,1-benzothiazol-3-yl)-3-(2-hydroxyethyl)-1-piperazinyl)-2-propen-1-one]
0.927	4.25	< 4.00				C=CC(=O)N1CCN(c2snc3c(F)c(-c4cc(O)cc5ccccc45)c(Cl)cc23)C(C(=O)O)C1 (stereo not drawn) [Example 22, 1-(5-chloro-7-fluoro-6-(3-hydroxy-1-naphthalenyl)-2,1-benzothiazol-3-yl)-4-(2-propenoyl)-2-piperazinecarboxylic acid]

SMILES	Coupled exchange IC50 [1] [µM]	pIC50 [2, 4]	pIC50 ([3]; Homo sapiens, A549, A549 cells)	pIC50 ([2]; MIA PaCa-2 cells)	pIC50 ([3]; A549 cells, listed as 8-6-7)	pIC50 ([3]; A549 cells)
C=CC(=O)N1CCN(c2nc(=O)n(-c3ccccc3C(C)C)c3cc(-c4c(O)cccc4F)c(Cl)cc23)[C@@H](C)C1 (single isomer, unassigned) [Example 8-3-2]	0.340			7.55		< 4.00
